Measured values as given in ChEMBL document CHEMBL5727953, “Sulfonylcycloalkyl carboxamide compounds” (2020).

Molecular target: Transient receptor potential cation channel subfamily A member 1 (Homo sapiens, UniProt O75762)
Experiment: Inhibition Assay: IC50 values (effective concentration) of compounds on the human and rat TRPA1 channels were determined using a FLIPR Tetra instrument. CHO cells expressing TRPA1 were plated into 384-well plates, incubated overnight at 37 C, and loaded with BD calcium indicator dye for 1 hr at 37° C. followed by 15 minutes. at room temperature. The assay buffer was Hank's Balanced Salt Solution (HBSS) containing 20 mM HEPES (pH readjusted to 7.4) along with 0.02% BSA.Following dye load and plate cool down, compounds were added to the cells using FLIPR Tetra. Plates were then incubated with compounds for 20 minutes at room temperature prior to adding agonist. Following this incubation, ˜EC80 concentration of cinnamaldehyde (75 uM for human TRPA1 and 45 uM for rat TRPA1) was added to active the channels and block of cinnamaldehyde induced calcium influx was measured.

Chain of Transient receptor potential cation channel subfamily A member 1 (O75762 whole entry): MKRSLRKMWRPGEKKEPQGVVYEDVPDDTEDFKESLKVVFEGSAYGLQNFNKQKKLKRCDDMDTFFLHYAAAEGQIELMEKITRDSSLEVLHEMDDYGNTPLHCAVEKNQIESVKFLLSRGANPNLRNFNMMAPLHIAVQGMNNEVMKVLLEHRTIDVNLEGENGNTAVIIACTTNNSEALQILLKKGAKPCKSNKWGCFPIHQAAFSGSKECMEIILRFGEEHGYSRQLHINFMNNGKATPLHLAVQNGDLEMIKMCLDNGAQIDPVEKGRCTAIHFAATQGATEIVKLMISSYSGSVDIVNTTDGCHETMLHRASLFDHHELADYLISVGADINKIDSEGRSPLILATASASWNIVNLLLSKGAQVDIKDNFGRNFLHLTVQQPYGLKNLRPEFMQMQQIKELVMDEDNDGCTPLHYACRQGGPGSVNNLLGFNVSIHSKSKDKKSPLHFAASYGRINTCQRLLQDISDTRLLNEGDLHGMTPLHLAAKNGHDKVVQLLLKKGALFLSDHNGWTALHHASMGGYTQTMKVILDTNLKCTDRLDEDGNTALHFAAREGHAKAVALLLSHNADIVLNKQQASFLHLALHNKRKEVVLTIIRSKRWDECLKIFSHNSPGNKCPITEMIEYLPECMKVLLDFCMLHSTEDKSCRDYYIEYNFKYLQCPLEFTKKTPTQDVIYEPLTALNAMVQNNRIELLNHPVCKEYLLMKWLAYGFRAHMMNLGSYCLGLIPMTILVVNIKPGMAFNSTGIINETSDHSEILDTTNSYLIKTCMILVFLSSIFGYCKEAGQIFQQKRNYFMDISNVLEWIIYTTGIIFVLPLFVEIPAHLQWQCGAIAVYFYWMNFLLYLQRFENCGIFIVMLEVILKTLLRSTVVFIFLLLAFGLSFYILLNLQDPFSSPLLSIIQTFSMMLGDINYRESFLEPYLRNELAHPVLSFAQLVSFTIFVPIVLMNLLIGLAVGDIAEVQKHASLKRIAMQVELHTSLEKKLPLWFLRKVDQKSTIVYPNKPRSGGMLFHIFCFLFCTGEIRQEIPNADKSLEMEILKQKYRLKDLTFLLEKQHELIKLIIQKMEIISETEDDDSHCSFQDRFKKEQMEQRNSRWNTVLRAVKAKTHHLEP

Row | SMILES | IC50 [nM]
1 | COc1nn(-c2cnc(C(F)(F)F)nc2)cc1CC(=O)N[C@@H]1CC[C@@H]1S(=O)(=O)c1ccc(F)cc1 | 246
2 | O=C(Cn1cc(-c2ccc(C(F)(F)F)cc2)cn1)N[C@@H]1CC[C@@H]1S(=O)(=O)c1ccc(F)cc1 | 200
